Experimental data taken from ChEMBL document CHEMBL1201862, “PubChem BioAssay data set” (2004).
The source made the active and inactive calls.

Columns and labels:
[1] = A cytotoxicity screen of small molecule inhibitors of the PhoP region in Salmonella typhi identified in the primary screen. [Related pubchem assays: 1850, 1864, 1985 ]; type: functional
[2] = biological target: Procathepsin L (Homo sapiens, UniProt P07711)
[3] = biological target: T1, Aspartyl aminopeptidase (Plasmodium falciparum 3D7, UniProt Q8I2J3)
T1 sequence (Q8I2J3 whole entry): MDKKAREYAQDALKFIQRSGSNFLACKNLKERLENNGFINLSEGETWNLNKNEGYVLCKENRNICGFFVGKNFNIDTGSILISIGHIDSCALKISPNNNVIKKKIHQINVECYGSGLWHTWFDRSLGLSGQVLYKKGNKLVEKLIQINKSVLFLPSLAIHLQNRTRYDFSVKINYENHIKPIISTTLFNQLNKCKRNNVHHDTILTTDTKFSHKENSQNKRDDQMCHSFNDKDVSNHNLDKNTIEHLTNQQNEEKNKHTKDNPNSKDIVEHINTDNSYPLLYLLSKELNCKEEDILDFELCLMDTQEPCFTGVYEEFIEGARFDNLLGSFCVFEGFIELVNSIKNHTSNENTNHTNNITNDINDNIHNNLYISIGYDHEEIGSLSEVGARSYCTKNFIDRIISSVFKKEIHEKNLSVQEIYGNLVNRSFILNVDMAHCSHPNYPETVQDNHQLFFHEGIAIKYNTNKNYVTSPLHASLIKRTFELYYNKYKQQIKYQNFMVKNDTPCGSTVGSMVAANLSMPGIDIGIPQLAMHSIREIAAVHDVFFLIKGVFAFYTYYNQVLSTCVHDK

[4] = tested on: H4; assay: Luminescence Cell-Based Dose Response HTS to Identify Activators of 5'UTR Stem-Loop Driven Prion Protein mRNA Translation in H4 Neuroglioblastoma Cells. [Related pubchem assays: 1829 (Project Summary), 1814 (Primary HTS)]; type: functional; settings: Homo sapiens
[5] = Luminescence Cell-Based Dose Response HTS to Identify Activators of Luciferase Translation or Activity in H4 […] Cells. [Related pubchem assays: 1829 (Project Summary), 1814 (Primary HTS)]; type: functional
[6] = biological target: Dual specificity tyrosine-phosphorylation-regulated kinase 1A (Rattus norvegicus, UniProt Q63470); type: biochemical, Homo sapiens
[7] = biological target: T2, Short transient receptor potential channel 4 (Mus musculus, UniProt Q9QUQ5); assay: block of DAMGO-driven TRPC4 calcium entry – cell-based, HEK293 TRPC4/mu-opioid, Fluo-4 calcium, dose response (AID 434942); type: functional;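 note: potency of inhibitors blocking the TRPC4 calcium response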
T2 sequence (Q9QUQ5 whole entry): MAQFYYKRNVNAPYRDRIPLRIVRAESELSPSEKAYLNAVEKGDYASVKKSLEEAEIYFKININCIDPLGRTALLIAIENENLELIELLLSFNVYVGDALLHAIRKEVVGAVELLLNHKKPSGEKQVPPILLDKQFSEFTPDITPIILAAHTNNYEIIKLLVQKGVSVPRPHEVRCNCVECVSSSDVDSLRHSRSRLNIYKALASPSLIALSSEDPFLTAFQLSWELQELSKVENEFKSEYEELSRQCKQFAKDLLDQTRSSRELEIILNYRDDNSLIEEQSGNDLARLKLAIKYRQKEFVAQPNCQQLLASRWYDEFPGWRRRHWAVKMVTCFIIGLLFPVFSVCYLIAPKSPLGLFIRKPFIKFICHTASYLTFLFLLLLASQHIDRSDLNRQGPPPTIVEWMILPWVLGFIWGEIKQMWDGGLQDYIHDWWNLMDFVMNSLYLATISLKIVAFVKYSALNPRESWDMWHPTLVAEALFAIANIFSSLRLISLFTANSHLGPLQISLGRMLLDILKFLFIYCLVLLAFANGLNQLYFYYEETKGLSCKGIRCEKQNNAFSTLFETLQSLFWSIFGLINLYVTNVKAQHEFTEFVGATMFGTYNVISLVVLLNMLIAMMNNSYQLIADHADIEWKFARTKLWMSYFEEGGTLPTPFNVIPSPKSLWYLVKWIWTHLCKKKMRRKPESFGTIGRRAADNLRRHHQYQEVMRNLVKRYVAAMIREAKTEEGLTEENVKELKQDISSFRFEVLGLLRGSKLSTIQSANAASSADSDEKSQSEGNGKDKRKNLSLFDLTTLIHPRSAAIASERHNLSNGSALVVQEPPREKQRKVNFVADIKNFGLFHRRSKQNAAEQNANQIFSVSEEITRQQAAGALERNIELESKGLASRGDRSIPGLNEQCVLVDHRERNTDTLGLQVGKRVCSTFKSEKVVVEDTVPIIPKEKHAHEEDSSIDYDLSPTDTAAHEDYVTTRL

[8] = HIV-1 AD8 envelope cell-cell fusion blockers – cherry-pick, dose response (AID 652062); type: functional, cell-based;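 note: luciferase signal from cell-cell fusion driven by HIV-1 clade B AD8 Env; potency is for inhibitors of fusion seen as a drop in luminescence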
[9] = biological target: T3, Estrogen receptor (Homo sapiens, UniProt P03372);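 note: potency for inhibiting coactivator peptide recruitment to the receptor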
T3 sequence (P03372 whole entry): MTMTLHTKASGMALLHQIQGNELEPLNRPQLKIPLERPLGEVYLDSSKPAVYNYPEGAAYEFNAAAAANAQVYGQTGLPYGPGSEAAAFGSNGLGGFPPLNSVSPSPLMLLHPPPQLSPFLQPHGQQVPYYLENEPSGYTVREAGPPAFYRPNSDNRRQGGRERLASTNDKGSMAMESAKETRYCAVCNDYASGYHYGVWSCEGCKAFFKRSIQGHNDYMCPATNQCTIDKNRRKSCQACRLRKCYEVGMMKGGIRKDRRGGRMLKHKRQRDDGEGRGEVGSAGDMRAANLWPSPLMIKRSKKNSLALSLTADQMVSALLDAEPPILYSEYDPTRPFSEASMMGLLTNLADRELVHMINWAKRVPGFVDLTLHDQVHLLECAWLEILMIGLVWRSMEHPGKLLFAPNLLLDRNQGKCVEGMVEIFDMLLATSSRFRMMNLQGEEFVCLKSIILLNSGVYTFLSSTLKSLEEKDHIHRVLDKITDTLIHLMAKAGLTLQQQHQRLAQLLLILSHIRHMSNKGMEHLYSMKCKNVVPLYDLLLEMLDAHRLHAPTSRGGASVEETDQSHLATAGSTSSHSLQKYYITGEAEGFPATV

[10] = blockers of HIV-1 ZM109 envelope-driven cell-cell fusion – HeLa effector, CEM target cells, luciferase, cherry-pick, dose response (AID 652058); type: functional, cell-based;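 note: luciferase signal from HIV-1 Env mediated cell-cell fusion of effector and target cells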
[11] = blockers of HIV-1 envelope-mediated cell-cell fusion – cherry-pick, dose response (AID 652057); type: functional, cell-based
[12] = biological target: T4, Leucine aminopeptidase (Plasmodium falciparum 3D7, UniProt Q8IL11); assay: P. falciparum M17LAP inhibitors, primary screen, biochemical, fluorogenic H-Leu-NHMec substrate, 1536-well (AID 1619); type: functional
T4 sequence (Q8IL11 whole entry): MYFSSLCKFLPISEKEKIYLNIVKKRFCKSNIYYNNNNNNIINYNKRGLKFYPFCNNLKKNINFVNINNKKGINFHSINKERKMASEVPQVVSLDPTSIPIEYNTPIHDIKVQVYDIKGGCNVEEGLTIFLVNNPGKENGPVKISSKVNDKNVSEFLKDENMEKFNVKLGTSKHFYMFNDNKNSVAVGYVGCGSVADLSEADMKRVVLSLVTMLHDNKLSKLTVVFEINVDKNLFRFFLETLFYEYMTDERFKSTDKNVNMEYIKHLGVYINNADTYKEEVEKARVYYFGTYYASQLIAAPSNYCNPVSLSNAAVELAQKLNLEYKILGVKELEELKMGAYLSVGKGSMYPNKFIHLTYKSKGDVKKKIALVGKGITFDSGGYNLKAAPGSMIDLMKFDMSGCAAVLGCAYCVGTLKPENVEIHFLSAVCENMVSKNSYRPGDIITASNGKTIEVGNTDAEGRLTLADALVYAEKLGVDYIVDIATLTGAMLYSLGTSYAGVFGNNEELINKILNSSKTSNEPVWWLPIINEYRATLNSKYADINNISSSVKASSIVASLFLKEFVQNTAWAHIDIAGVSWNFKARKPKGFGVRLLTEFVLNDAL

[13] = biological target: Eukaryotic translation initiation factor 4E (Mus musculus, UniProt P63073); assay: blockers of eIF4G binding by eIF4E – biochemical, TR-FRET, dose response (AID 855); type: functional;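 note: potency for disrupting eIF4E binding to eIF4GI seen as loss of FRET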
[14] = M. tuberculosis H37Rv growth inhibitors, H37Rv strain (AID 1626); type: functional
[15] = biological target: T5, Voltage-gated N-type calcium channel alpha-1B subunit/Amyloid beta A4 precursor protein-binding family A member 1 (Homo sapiens, UniProt Q00975+Q02410); assay: disruptors of Mint-PDZ/N-type channel peptide interaction – biochemical, HTRF, SAR follow-up (AID 2489); type: functional
[16] = biological target: T5, Voltage-gated N-type calcium channel alpha-1B subunit/Amyloid beta A4 precursor protein-binding family A member 1; assay: disruptors of Mint-PDZ/N-type channel peptide interaction – biochemical, HTRF, set 2, SAR follow-up (AID 434980); type: functional
[17] = biological target: Large T antigen (Simian virus 40, UniProt P03070); type: functional, Betapolyomavirus macacae;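 note: Confirmatory-stage PubChem screen for compounds that inhibit SV40 T antigen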
[18] = alpha-synuclein stem-loop luciferase translation blockers – H4 neuroglioma cells, luminescence, confirmation (AID 1988); type: functional, cell-based
[19] = biological target: Cytochrome P450 2C9 (Homo sapiens, UniProt P11712)
[20] = biological target: Cytochrome P450 3A4 (Homo sapiens, UniProt P08684);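 note: CYP3A4 tested as one member of a cytochrome P450 panel screen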
[21] = biological target: Cytochrome P450 2D6 (Homo sapiens, UniProt P10635);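 note: CYP2D6 member of a cytochrome P450 panel assay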
[22] = Luminescence Cell-Based Dose Response HTS to Identify Inhibitors of 5'UTR Stem-Loop Driven Prion Protein mRNA Translation in H4 Neuroglioblastoma Cells. [Related pubchem assays: 1827 (Project Summary), 1813 (Primary HTS)]; type: functional
[23] = loss of viability in HepG2 cells – cell-based, CellTiter-Glo, cherry-picked, cytotoxicity control for Shn3 inhibitor project, dose response (AID 624134); type: functional
[24] = biological target: Cytochrome P450 2C19 (Homo sapiens, UniProt P33261); assay: Cytochrome panel assay with activity outcomes. Panel member name: p450-cyp2c19 Compounds with AC50 equal or less than 10 uM are considered active; type: functional; settings: read-out: AC50
[25] = biological target: T6, Ubiquitin-conjugating enzyme E2 N (Homo sapiens, UniProt P61088); type: functional;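 note: Dose-response confirmation in a TR-FRET assay detecting UBC13-driven polyubiquitin chain formation, inhibition measured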
T6 sequence (P61088 whole entry): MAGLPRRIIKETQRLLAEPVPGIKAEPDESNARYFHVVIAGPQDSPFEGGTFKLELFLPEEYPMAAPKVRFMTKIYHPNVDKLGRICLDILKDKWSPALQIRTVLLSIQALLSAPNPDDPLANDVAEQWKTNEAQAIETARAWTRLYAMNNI

[26] = reduction of Shn3 3'UTR-driven luciferase in osteoblasts – cell-based, Clone20 osteoblasts, firefly luciferase, cherry-picked, dose response (AID 624132); type: functional;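 note: firefly luciferase luminescence from reporter carrying the Shn3 3'UTR in osteoblasts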
[27] = non-specific 3'UTR reporter inhibition in Clone20-Shn3RL – cell-based, Renilla luciferase, cherry-picked, counter-screen for Shn3 inhibitor project, dose response (AID 624133); type: functional
[28] = luciferase reporter signal suppression in cells – H4 neuroglioma cells, luminescence, dose response (AID 1990); type: functional, cell-based
[29] = viability of HCT116 lacking mutant beta-catenin – cell-based, human colon tumor, dose response (AID 1045); type: functional;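 note: HCT116 colon tumor cells with beta catenin knocked out; cells exposed to compound for 60 hours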
[30] = HPDE-C7 pancreatic duct cell viability loss – fluorescence, HTS (AID 430); type: functional, cell-based; settings: Homo sapiens
[31] = viability of PTEN-deleted HCT116 cells – cell-based, HCT116 PTEN knockout, dose response (AID 1047); type: functional;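 note: HCT116 colon tumor cells with PTEN knocked out; cells exposed to compound for 60 hours before readout; potency for loss of cell viability measured by luminescence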
[32] = viability loss of HPDE-C7K cells – cell-based, fluorescence, HTS, primary screen (AID 431); type: functional; settings: Homo sapiens

Procathepsin L, sequence (P07711 whole entry): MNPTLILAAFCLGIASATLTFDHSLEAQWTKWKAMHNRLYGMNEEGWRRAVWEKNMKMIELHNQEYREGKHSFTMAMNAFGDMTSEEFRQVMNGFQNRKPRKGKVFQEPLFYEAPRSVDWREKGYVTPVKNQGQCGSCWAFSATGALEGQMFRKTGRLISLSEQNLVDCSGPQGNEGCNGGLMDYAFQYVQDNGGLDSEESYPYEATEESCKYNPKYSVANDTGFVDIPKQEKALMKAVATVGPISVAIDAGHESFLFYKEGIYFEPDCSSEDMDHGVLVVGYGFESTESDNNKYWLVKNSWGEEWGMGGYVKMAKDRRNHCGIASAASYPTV
T5 sequence (Q00975 whole entry): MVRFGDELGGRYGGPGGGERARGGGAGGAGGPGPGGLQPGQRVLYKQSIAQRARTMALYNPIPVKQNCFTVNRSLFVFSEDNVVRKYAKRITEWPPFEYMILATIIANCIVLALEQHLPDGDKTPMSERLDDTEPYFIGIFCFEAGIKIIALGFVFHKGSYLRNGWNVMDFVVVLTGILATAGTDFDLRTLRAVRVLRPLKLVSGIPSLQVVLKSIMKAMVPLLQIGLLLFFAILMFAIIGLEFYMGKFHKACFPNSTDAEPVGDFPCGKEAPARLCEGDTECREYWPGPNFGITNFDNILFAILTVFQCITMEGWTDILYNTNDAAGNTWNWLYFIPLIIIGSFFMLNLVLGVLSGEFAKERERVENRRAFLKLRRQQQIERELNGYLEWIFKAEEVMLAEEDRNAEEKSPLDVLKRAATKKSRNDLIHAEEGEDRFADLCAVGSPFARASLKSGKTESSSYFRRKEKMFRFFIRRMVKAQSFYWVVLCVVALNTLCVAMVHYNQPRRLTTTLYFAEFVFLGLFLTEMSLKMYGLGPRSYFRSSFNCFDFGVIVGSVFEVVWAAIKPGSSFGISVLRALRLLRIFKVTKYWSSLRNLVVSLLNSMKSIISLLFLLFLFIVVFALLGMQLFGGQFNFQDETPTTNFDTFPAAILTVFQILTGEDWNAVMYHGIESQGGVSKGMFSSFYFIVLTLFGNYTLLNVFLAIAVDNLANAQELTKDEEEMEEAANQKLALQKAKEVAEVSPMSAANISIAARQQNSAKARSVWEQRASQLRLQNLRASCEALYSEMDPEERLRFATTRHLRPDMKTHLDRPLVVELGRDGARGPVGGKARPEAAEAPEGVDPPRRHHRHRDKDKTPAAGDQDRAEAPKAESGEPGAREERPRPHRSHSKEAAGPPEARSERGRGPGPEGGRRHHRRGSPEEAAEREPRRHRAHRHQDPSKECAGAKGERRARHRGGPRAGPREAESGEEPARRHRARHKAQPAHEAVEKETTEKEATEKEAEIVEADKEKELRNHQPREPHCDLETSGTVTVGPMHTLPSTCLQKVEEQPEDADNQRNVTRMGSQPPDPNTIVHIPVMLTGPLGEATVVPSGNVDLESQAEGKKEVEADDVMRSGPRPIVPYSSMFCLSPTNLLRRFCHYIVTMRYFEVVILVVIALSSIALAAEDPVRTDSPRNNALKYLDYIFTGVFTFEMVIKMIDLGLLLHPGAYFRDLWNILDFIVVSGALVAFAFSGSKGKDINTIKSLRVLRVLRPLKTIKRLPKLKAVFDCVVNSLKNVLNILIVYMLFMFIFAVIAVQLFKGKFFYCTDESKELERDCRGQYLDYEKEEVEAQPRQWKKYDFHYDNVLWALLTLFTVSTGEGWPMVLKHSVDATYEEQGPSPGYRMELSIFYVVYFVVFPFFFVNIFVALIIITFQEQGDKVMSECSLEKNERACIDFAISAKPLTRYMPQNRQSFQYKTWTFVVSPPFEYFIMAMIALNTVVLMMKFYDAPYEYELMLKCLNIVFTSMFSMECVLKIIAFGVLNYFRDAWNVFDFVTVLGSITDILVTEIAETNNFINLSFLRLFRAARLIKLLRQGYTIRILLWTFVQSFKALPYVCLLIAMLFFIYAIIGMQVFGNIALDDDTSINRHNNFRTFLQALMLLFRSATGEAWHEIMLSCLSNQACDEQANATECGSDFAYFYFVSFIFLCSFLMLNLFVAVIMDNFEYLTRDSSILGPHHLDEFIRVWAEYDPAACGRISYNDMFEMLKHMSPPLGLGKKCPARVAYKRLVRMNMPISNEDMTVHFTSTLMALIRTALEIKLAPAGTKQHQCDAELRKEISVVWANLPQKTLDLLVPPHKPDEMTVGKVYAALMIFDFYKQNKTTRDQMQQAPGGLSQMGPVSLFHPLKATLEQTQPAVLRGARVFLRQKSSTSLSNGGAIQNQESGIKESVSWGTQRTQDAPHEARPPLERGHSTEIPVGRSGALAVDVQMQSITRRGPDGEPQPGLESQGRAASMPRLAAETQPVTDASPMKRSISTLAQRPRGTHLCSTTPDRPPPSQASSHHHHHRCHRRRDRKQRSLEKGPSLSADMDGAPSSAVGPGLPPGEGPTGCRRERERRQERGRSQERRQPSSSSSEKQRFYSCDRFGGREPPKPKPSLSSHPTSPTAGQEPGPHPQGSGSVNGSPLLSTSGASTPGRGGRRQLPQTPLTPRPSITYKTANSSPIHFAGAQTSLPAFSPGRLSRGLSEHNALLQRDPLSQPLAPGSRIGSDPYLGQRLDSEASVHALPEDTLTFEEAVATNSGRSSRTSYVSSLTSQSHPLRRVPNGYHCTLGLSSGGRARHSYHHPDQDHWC
T5 sequence (Q02410 whole entry): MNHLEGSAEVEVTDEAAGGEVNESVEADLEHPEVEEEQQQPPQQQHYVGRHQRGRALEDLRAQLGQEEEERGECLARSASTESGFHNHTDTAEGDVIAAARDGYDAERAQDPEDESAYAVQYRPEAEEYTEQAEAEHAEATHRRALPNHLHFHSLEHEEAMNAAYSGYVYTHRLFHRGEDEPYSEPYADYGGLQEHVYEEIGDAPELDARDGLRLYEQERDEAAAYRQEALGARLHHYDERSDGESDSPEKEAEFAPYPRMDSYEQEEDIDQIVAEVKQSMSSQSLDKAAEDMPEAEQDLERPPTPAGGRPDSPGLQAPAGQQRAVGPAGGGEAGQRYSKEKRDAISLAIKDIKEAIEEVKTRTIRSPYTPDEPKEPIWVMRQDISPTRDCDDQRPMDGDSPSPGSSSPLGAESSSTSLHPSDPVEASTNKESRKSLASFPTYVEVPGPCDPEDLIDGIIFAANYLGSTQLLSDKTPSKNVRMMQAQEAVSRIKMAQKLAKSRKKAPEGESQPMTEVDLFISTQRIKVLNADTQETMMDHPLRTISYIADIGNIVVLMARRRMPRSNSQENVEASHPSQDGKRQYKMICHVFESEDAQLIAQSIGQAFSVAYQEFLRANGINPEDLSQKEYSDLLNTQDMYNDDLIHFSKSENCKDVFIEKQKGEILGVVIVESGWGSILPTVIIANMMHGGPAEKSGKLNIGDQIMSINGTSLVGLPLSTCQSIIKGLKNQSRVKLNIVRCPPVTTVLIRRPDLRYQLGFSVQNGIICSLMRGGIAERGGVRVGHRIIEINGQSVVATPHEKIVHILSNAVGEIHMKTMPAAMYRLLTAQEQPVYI
Large T antigen, sequence (P03070 whole entry): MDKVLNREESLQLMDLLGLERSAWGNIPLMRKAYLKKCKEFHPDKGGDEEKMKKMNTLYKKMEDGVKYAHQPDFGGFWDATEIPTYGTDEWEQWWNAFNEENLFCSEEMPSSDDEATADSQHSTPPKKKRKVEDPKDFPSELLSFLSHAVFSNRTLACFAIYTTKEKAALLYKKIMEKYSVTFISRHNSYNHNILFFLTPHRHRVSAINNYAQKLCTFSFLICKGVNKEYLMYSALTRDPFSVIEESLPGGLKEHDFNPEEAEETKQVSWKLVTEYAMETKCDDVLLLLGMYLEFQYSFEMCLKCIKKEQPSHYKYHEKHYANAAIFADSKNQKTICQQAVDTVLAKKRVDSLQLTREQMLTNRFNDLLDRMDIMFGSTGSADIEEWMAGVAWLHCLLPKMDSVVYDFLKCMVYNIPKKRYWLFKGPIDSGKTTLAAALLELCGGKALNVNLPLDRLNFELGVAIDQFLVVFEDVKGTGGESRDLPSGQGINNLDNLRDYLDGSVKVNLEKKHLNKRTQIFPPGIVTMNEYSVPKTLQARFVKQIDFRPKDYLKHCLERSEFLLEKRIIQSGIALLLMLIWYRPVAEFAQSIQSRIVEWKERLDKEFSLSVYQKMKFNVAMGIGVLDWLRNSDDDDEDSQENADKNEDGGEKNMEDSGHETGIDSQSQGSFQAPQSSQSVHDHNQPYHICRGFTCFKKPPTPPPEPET
Cytochrome P450 2C9, sequence (P11712 whole entry): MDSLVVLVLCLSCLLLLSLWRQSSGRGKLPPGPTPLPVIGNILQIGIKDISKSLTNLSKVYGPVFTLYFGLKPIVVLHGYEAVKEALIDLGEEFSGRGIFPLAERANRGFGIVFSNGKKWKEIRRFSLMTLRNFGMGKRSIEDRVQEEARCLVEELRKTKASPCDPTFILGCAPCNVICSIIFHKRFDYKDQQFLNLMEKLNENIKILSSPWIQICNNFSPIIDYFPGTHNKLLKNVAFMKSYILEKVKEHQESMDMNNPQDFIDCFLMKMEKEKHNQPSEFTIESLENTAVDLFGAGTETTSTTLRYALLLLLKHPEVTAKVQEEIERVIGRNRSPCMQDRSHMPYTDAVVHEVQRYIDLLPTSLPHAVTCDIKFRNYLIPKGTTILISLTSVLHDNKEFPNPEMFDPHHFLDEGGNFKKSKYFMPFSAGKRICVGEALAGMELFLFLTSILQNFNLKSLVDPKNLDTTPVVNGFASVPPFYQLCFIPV
Eukaryotic translation initiation factor 4E, sequence (P63073 whole entry): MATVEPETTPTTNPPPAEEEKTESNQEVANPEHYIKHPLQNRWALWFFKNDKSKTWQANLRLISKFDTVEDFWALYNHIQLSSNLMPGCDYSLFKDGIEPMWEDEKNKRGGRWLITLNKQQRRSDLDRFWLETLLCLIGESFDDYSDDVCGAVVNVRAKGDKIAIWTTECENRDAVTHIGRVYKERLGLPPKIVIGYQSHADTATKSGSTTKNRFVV

## CCCCOc1ccc(-c2nnn(CC(=O)Nc3ncc(CC(=O)OCC)s3)n2)cc1
[1]
  EC50: > 50 µM (active)

## O=C(CSc1nnc(-c2ccccc2)o1)Nn1cnnc1
[2]
  IC50: > 59.6 µM (not active)
[3]
  IC50: 2.09 µM (active)

## Oc1ccc(-c2csc(-c3ccccc3)n2)cc1O
[2]
  IC50: > 59.6 µM (not active)
[4]
  EC50: 6.54 µM (active)
[3]
  IC50: 2.78 µM (active)
[5]
  EC50: > 120 µM (not active)
[6]
  AC50: 6.72 µM (active)
[7]
  EC50: 4.73 µM (active)

## O=C(Nc1ccccc1Cl)Nn1cnnc1
[2]
  IC50: > 59.6 µM (not active)
[3]
  IC50: 1.47 µM (active)

## O=C(NCc1cccs1)C(=O)NCC(c1ccco1)N1CCN(c2ccc(F)cc2)CC1 (centres undefined)
[1]
  EC50: > 50 µM (active)

## O=S(=O)(NCCc1csc(-c2cccnc2)n1)c1ccc(Cl)s1
[8]
  AC50: 12 µM (active)
[9]
  IC50: 19.2 µM (active)
[10]
  AC50: 7.17 µM (active)
[11]
  AC50: 42 µM (active)

## Cc1ccccc1Nc1nnc(SCC(=O)NC(=O)NCc2ccco2)s1
[12]
  IC50: 25.1 µM (active)
[9]
  IC50: 17.3 µM (active)

## CCOC(=O)c1cnn(C(=O)c2ccccc2)c1N
[13]
  IC50: > 64 µM (inactive)
[14]
  IC50: > 100 µM (active)

## CC12C=CC(C)(O1)C1C(=O)N(c3ccc(F)cc3)C(=O)C12 (centres undefined)
[15]
  IC50: 10.7 µM (active)
[16]
  IC50: 8.89 µM (active)

## COc1ccc(/N=C/c2c[nH]nc2O)cc1
[14]
  IC50: > 100 µM (active)
[17]
  IC50: 17.9 µM (active)

## COc1ccc(CCN2CCC(Nc3nc4ccccc4n3Cc3ccc(F)cc3)CC2)cc1 [ASTEMIZOLE]
[18]
  EC50: 7.94 µM (active)
[19]
  AC50: inactive
[20]
  AC50: inactive
[21]
  AC50: 7.94 µM (active)
[22]
  EC50: 9.34 µM (active)
[23]
  AC50: 12.6 µM (active)
[24]
  AC50: 7.94 µM (inconclusive)
[25]
  IC50: > 20 µM (inactive)
[26]
  AC50: 3.03 µM (active)
[27]
  AC50: 19.7 µM (active)
[28]
  EC50: > 60 µM (not active)
[29]
  EC50: 3.78 µM (active)
[30]
  EC50: 12.4 µM (active)
[31]
  EC50: 5.87 µM (active)
[32]
  EC50: 13.6 µM (active)
